# According to US10233193B2, “Fused tricyclic heterocyclic compounds useful for treating HIV infection” (MERCK SHARP & DOHME CORP., priority 2015, dated 2019):
# Where two headings read alike, the source gives them in different places.
# System: HIV-1 (NL4-3 strain)
# Assay: Assay for inhibition of HIV replication (MT4-gag-GFP reporter cell line, wild type cell assay, Viking)
# Format: cell-based
# Details: IP or IC50 from 4-parameter dose response curve
# Procedure: This assay is a kinetic assay that employs a reporter cell line (MT4-gag-GFP) to quantify the number of new cells infected in each round of replication.
# MT4-GFP cells (250,000 cells/ml) were bulk-infected with HIV-1 (NL4-3 strain) at low multiplicity of infection (MOI) in RPMI+10% FBS for 24 hours. Cells were then washed once in RPMI+10% FBS and resuspended in RPMI+0% or 10% or 100% normal human serum (NHS). Test compounds were serial-diluted in DMSO on ECHO. The infected MT4-GFP cells were added to a 384-well poly-D-lysine coated black plate with clear bottom in which the diluted test compounds were placed. The cells were seeded at 8,000 cells per well and the final DMSO concentration was 0.4%. The infected cells (Green GFP cells) were quantified at both 24 and 48 hours post incubation using Acumen eX3. Viral reproductive ratio (R0) was determined using the number of infected cells at 48 hours divided by the number of infected cells at 24 hours. Percent viral growth inhibition was calculated by [1−(R−Rtripledrug)/(RDMSO−Rtripledrug)]*100. Compound potency IP or IC50 was determined by a 4-parameter dose response curve analysis.
# Illustrative compounds of the present invention were tested using this assay protocol and results are presented below in Table A.
structure (smiles),measurement,setting,value
CN1CC[C@@H]2C1C(C)(C)C(=O)c1c(O)c(=O)c(C(=O)NCc3ccc(F)cc3F)cn12 (some centres unmarked) [Compound 9],IC50,"infected MT4-GFP cells in 100% normal human serum, read-out: WILD TYPE CELL ASSAY Viking IP (100% NHS)",174 nM
same,IC50,"infected MT4-GFP cells in RPMI + 0% normal human serum, read-out: WILD TYPE CELL ASSAY Viking IP (0% NHS)",5.3 nM
